{
  "source": "paper PMC9587990",
  "about": "“Molecular basis for isoform-selective inhibition of presenilin-1 by MRK-560” (Nature Communications, 2022)",
  "assay_in_all_cases": "in vitro cleavage assay, Aβ40 production by AlphaLISA",
  "type_in_all_cases": "biochemical",
  "key": {"[1]": {"target": "T1, PS1 TL281-282PI γ-secretase complex (Homo sapiens, UniProt P49768, L282I/T281P)", "T1 construct": "made in house", "conditions": "PS1TL 281 282PI, replicates", "protocol": "(§1) In total we generated six variants, including single and double residue swapping of Thr281/Leu282 in PS1 with Pro287/Ile288 in PS2, respectively. MRK-560 response to the six PS1/PS2 mutant-containing complexes, each purified to homogeneity, was examined in the in vitro cleavage assay (Fig. 4). All proteins used for the activity assay were sub-cloned, expressed and purified as described. Protein concentration was determined using the Bradford method. […] The cleavage reaction was conducted at 37 °C for 4 h. The cleaved products of these substrates were detected using a monoclonal antibody (1:1000 dilution, CW0299, CWBio) against the C-terminal Myc tag. Aβ40 production was detected using the AlphaLISA assay (PerkinElmer) as described. The IC50 values and the inhibition curves were calculated using Prism 8.0. Statistical analysis of Aβ40 was performed using Prism 8 (GraphPad Software, San Diego, CA, USA). IC50 were determined by a four-parameter logistic regression. The statistical details can be found in Figs. 1, 4 and legends. Data are expressed as mean ± SD."}, "[2]": {"target": "T2, PS2 I288L γ-secretase complex (Homo sapiens, UniProt P49810, I288L)", "T2 construct": "made in house", "conditions": "for remaining activity at 0.002 µM / remaining activity at 0.04 µM / remaining activity at 0.2 µM / remaining activity at 1 µM / remaining activity at 10 µM / remaining activity at 20 µM: 4 h", "protocol": "as §1"}, "[3]": {"target": "T3, PS2 P287T γ-secretase complex (Homo sapiens, UniProt P49810, P287T)", "T3 construct": "made in house", "conditions": "for remaining activity at 0.002 µM / remaining activity at 0.04 µM / remaining activity at 0.2 µM / remaining activity at 1 µM / remaining activity at 10 µM / remaining activity at 20 µM: 4 h", "protocol": "as §1"}, "[4]": {"conditions": "MRK-560 2 nM, mean of 3 replicates, read-out: Normalized production (control=1), Mean"}, "[5]": {"conditions": "MRK-560 2 nM, replicates, read-out: Normalized production (control=1)"}, "[6]": {"conditions": "MRK-560 40 nM, mean of 3 replicates, read-out: Normalized production (control=1), Mean"}, "[7]": {"conditions": "MRK-560 40 nM, replicates, read-out: Normalized production (control=1)"}, "[8]": {"conditions": "MRK-560 200 nM, mean of 3 replicates, read-out: Normalized production (control=1), Mean"}, "[9]": {"conditions": "MRK-560 200 nM, replicates, read-out: Normalized production (control=1)"}, "[10]": {"conditions": "MRK-560 1 μM, mean of 3 replicates, read-out: Normalized production (control=1), Mean"}, "[11]": {"conditions": "MRK-560 1 μM, replicates, read-out: Normalized production (control=1)"}, "[12]": {"conditions": "MRK-560 10 μM, mean of 3 replicates, read-out: Normalized production (control=1), Mean"}, "[13]": {"conditions": "MRK-560 10 μM, replicates, read-out: Normalized production (control=1)"}, "[14]": {"conditions": "MRK-560 20 μM, mean of 3 replicates, read-out: Normalized production (control=1), Mean"}, "[15]": {"conditions": "MRK-560 20 μM, replicates, read-out: Normalized production (control=1)"}},
  "note": "Where “and” joins values, the source holds several entries; their conditions need not be identical. Equal values may be shown once. Read-outs that look alike come from different tables or passages of the source.",
  "data": [
    {"compound": "O=S(=O)(NC1CCC(c2cc(F)ccc2F)(S(=O)(=O)c2ccc(Cl)cc2)CC1)C(F)(F)F", "note": "(stereo not drawn) [MRK-560, N-[cis-4-[(4-chlorophenyl)sulfonyl]-4-(2,5-difluorophenyl)cyclohexyl]-1,1,1-trifluoromethanesulfonamide]", "values": [
      {"measurement": "remaining activity at 10 µM", "setting": "[1]; 4 h, MRK-560 10 μM, read-out: Normalized production (control=1)", "result": 1.43, "unit": "%"},
      {"measurement": "Caculated Aβ40 production", "setting": "[1]; MRK-560 2 nM", "result": "380.9708 and 384.7930 and 381.0949"},
      {"measurement": "raw data from α-Lisa reading", "setting": "[1]; MRK-560 2 nM", "result": "58097 and 58620 and 58114"},
      {"measurement": "Caculated Aβ40 production", "setting": "[1]; MRK-560 10 nM", "result": "372.0557 and 371.8958 and 369.4343"},
      {"measurement": "raw data from α-Lisa reading", "setting": "[1]; MRK-560 10 nM", "result": "56873 and 56851 and 56512"},
      {"measurement": "Caculated Aβ40 production", "setting": "[1]; MRK-560 40 nM", "result": "339.5167 and 363.4357 and 337.7821"},
      {"measurement": "raw data from α-Lisa reading", "setting": "[1]; MRK-560 40 nM", "result": "52356 and 55684 and 52113"},
      {"measurement": "Caculated Aβ40 production", "setting": "[1]; MRK-560 200 nM", "result": "195.2943 and 180.8050 and 191.3579"},
      {"measurement": "raw data from α-Lisa reading", "setting": "[1]; MRK-560 200 nM", "result": "31350 and 29146 and 30753"},
      {"measurement": "Caculated Aβ40 production", "setting": "[1]; MRK-560 1 μM", "result": "36.3190 and 36.2828 and 37.2900"},
      {"measurement": "raw data from α-Lisa reading", "setting": "[1]; MRK-560 1 μM", "result": "6150 and 6144 and 6311"},
      {"measurement": "Caculated Aβ40 production", "setting": "[1]; MRK-560 10 μM", "result": "4.7413 and 3.9425 and 4.5046"},
      {"measurement": "raw data from α-Lisa reading", "setting": "[1]; MRK-560 10 μM", "result": "864 and 729 and 824"},
      {"measurement": "remaining activity at 0.002 µM", "setting": "[2]; [4]", "result": 110, "unit": "%"},
      {"measurement": "remaining activity at 0.002 µM", "setting": "[2]; [5]", "result": 110, "unit": "%"},
      {"measurement": "remaining activity at 0.04 µM", "setting": "[2]; [6]", "result": 65.9, "unit": "%"},
      {"measurement": "remaining activity at 0.04 µM", "setting": "[2]; [7]", "result": 68, "unit": "%"},
      {"measurement": "remaining activity at 0.2 µM", "setting": "[2]; [8]", "result": 17.7, "unit": "%"},
      {"measurement": "remaining activity at 0.2 µM", "setting": "[2]; [9]", "result": 17.9, "unit": "%"},
      {"measurement": "remaining activity at 1 µM", "setting": "[2]; [10]", "result": 5.3, "unit": "%"},
      {"measurement": "remaining activity at 1 µM", "setting": "[2]; [11]", "result": 5.2, "unit": "%"},
      {"measurement": "remaining activity at 10 µM", "setting": "[2]; [12]", "result": 1.39, "unit": "%"},
      {"measurement": "remaining activity at 10 µM", "setting": "[2]; [13]", "result": 1.35, "unit": "%"},
      {"measurement": "remaining activity at 20 µM", "setting": "[2]; [14]", "result": 1.69, "unit": "%"},
      {"measurement": "remaining activity at 20 µM", "setting": "[2]; [15]", "result": 1.61, "unit": "%"},
      {"measurement": "Caculated Aβ40 production", "setting": "[2]; MRK-560 2 nM, replicates", "result": "534.8273 and 537.0982 and 529.5442"},
      {"measurement": "raw data from α-Lisa reading", "setting": "[2]; MRK-560 2 nM, replicates", "result": "78346 and 78633 and 77677"},
      {"measurement": "Caculated Aβ40 production", "setting": "[2]; MRK-560 40 nM, replicates", "result": "330.6964 and 306.7347 and 323.3048"},
      {"measurement": "raw data from α-Lisa reading", "setting": "[2]; MRK-560 40 nM, replicates", "result": "51118 and 47725 and 50076"},
      {"measurement": "Caculated Aβ40 production", "setting": "[2]; MRK-560 200 nM, replicates", "result": "87.0033 and 86.1156 and 85.5883"},
      {"measurement": "raw data from α-Lisa reading", "setting": "[2]; MRK-560 200 nM, replicates", "result": "14434 and 14291 and 14206"},
      {"measurement": "Caculated Aβ40 production", "setting": "[2]; MRK-560 1 μM, replicates", "result": "25.2908 and 26.2376 and 25.7761"},
      {"measurement": "raw data from α-Lisa reading", "setting": "[2]; MRK-560 1 μM, replicates", "result": "4315 and 4473 and 4396"},
      {"measurement": "Caculated Aβ40 production", "setting": "[2]; MRK-560 10 μM, replicates", "result": "6.5772 and 6.8972 and 6.7964"},
      {"measurement": "raw data from α-Lisa reading", "setting": "[2]; MRK-560 10 μM, replicates", "result": "1174 and 1228 and 1211"},
      {"measurement": "Caculated Aβ40 production", "setting": "[2]; MRK-560 20 μM, replicates", "result": "7.8160 and 7.8990 and 8.9905"},
      {"measurement": "raw data from α-Lisa reading", "setting": "[2]; MRK-560 20 μM, replicates", "result": "1383 and 1397 and 1581"},
      {"measurement": "IC50", "setting": "[2]; mean ± SD", "result": "57 ± 10", "unit": "nM"},
      {"measurement": "remaining activity at 0.002 µM", "setting": "[3]; [4]", "result": 86.9, "unit": "%"},
      {"measurement": "remaining activity at 0.002 µM", "setting": "[3]; [5]", "result": 87.8, "unit": "%"},
      {"measurement": "remaining activity at 0.04 µM", "setting": "[3]; [6]", "result": 68.9, "unit": "%"},
      {"measurement": "remaining activity at 0.04 µM", "setting": "[3]; [7]", "result": 70.8, "unit": "%"},
      {"measurement": "remaining activity at 0.2 µM", "setting": "[3]; [8]", "result": 33.9, "unit": "%"},
      {"measurement": "remaining activity at 0.2 µM", "setting": "[3]; [9]", "result": 34.2, "unit": "%"},
      {"measurement": "remaining activity at 1 µM", "setting": "[3]; [10]", "result": 8.68, "unit": "%"},
      {"measurement": "remaining activity at 1 µM", "setting": "[3]; [11]", "result": 8.69, "unit": "%"},
      {"measurement": "remaining activity at 10 µM", "setting": "[3]; [12]", "result": 1.62, "unit": "%"},
      {"measurement": "remaining activity at 10 µM", "setting": "[3]; [13]", "result": 1.63, "unit": "%"},
      {"measurement": "remaining activity at 20 µM", "setting": "[3]; [14]", "result": 1.25, "unit": "%"},
      {"measurement": "remaining activity at 20 µM", "setting": "[3]; [15]", "result": 1.14, "unit": "%"},
      {"measurement": "Caculated Aβ40 production", "setting": "[3]; MRK-560 2 nM, replicates", "result": "520.0011 and 533.1358 and 528.5350"},
      {"measurement": "raw data from α-Lisa reading", "setting": "[3]; MRK-560 2 nM, replicates", "result": "78132 and 77549 and 76464"},
      {"measurement": "Caculated Aβ40 production", "setting": "[3]; MRK-560 40 nM, replicates", "result": "419.8422 and 429.7041 and 404.1611"},
      {"measurement": "raw data from α-Lisa reading", "setting": "[3]; MRK-560 40 nM, replicates", "result": "64687 and 61254 and 63367"},
      {"measurement": "Caculated Aβ40 production", "setting": "[3]; MRK-560 200 nM, replicates", "result": "203.3520 and 207.5605 and 206.0857"},
      {"measurement": "raw data from α-Lisa reading", "setting": "[3]; MRK-560 200 nM, replicates", "result": "33202 and 32980 and 32568"},
      {"measurement": "Caculated Aβ40 production", "setting": "[3]; MRK-560 1 μM, replicates", "result": "52.1767 and 52.7609 and 53.0714"},
      {"measurement": "raw data from α-Lisa reading", "setting": "[3]; MRK-560 1 μM, replicates", "result": "8864 and 8915 and 8768"},
      {"measurement": "Caculated Aβ40 production", "setting": "[3]; MRK-560 10 μM, replicates", "result": "9.7739 and 9.8808 and 9.9223"},
      {"measurement": "raw data from α-Lisa reading", "setting": "[3]; MRK-560 10 μM, replicates", "result": "1731 and 1738 and 1713"},
      {"measurement": "Caculated Aβ40 production", "setting": "[3]; MRK-560 20 μM, replicates", "result": "7.8338 and 6.8972 and 8.0769"},
      {"measurement": "raw data from α-Lisa reading", "setting": "[3]; MRK-560 20 μM, replicates", "result": "1228 and 1427 and 1386"},
      {"measurement": "IC50", "setting": "[3]; mean ± SD", "result": "106 ± 27", "unit": "nM"}
    ]}
  ]
}
